Reference: the supplement of paper PMC10307832

Compound: Cc1ccc(NC(=O)c2ccc(CN3CCN(C)CC3)cc2)cc1Nc1nccc(-c2cccnc2)n1 [Imatinib]
Assay: relative viability (nuclei count vs DMSO), 5 days (fraction); higher = more cells survive
Procedure, shortened: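 Vehicle-anchored 1536-well plates of lung cancer cell lines, held overnight at 37 °C, were pinned with five library-drug doses (not always all listed) spaced by √10. No medium change followed over the next 5 days, after which the cells were fixed, permeabilised and Hoechst-stained together and imaged at 4×. Nuclei were counted with MetaXpress, and viability is treated-well nuclei over vehicle-well nuclei, taken as a median across plates. Plates passed with control CV below 25% and at least one doubling.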

Row | Cell Line | relative viability (0.02 µM) | relative viability (0.06325 µM) | relative viability (0.2 µM) | relative viability (0.6325 µM) | relative viability (2 µM)
1 | NCI-H1650 | 0.919 | 0.778 | 1.03 | 0.922 | 0.993
2 | UMC-11 | 1.03 | 0.987 | 1.03 | 1.1 | 0.941
3 | EPLC-272H | 1.16 |  | 0.884 | 1.07 | 0.87
4 | NCI-H2342 | 0.896 | 0.891 | 0.972 | 0.943 | 0.998
5 | ABC-1 | 1.11 |  | 1.07 | 0.888 | 0.634
6 | LOU-NH91 | 0.968 | 1.09 | 0.966 | 0.964 | 0.874
7 | SW 900 | 0.806 | 0.712 | 0.941 | 0.896 | 0.855
8 | NCI-H838 | 1.03 | 1.09 |  | 1 | 1.01
9 | SK-LU-1 | 1.08 |  | 1.15 |  | 1.11
10 | HCC-827 |  | 1.04 |  | 1.05 | 1.03
11 | PC-3 [JPC-3] | 1.07 |  | 1.09 | 1.11 | 0.972
12 | NCI-H2228 |  | 0.927 | 1.33 |  | 1.08
13 | NCI-H1703 | 0.947 | 0.804 | 0.56 | 0.357 | 0.212
14 | HCC-366 | 0.978 | 0.856 | 1.06 | 1.07 | 0.988
15 | NCI-H1355 | 1.05 |  | 1.08 | 0.978 | 0.99
16 | NCI-H1563 |  | 0.912 | 1.11 | 0.963 | 0.976
17 | HARA | 1.06 |  | 1.07 | 0.993 | 
18 | H3255 | 1.05 | 0.749 | 0.893 | 1.06 | 0.899
19 | EMC-BAC-2 | 1.03 | 0.952 | 1.13 | 1.09 | 1.01
20 | COR-L 105 | 1.06 | 0.979 | 1 | 0.891 | 0.9
21 | NCI-H2405 |  | 0.721 | 1.02 | 0.927 | 1
22 | NCI-H1648 | 0.744 | 0.627 | 0.699 | 0.421 | 0.618
23 | NCI-H1915 | 1.09 |  | 1.02 | 1.03 | 0.967
24 | SW 1573 | 1.16 | 0.79 | 1.13 | 1.01 | 1.02
25 | EKVX | 1.03 | 0.763 | 1 | 1.01 | 
26 | NCI-H358 |  | 0.865 | 1.02 | 0.819 | 0.947

Row | Cell Line | relative viability (0.02 µM) | relative viability (0.06325 µM) | relative viability (0.2 µM) | relative viability (0.6325 µM) | relative viability (2 µM)
27 | HCC-78 | 0.901 | 0.797 | 1.06 | 0.89 | 0.904
28 | LXF-289 | 1.06 | 0.998 | 1.1 | 1.01 | 0.976
29 | NCI-H2085 |  | 0.826 | 1.01 | 1.04 | 1.02
30 | NCI-H441 | 1.06 | 0.969 | 1.2 | 0.885 | 
31 | 201T | 1.01 |  | 1.02 | 0.997 | 0.965
32 | RERF-LC-KJ | 1.1 | 0.884 | 1.06 | 0.985 | 0.953
33 | NCI-H520 | 1.11 | 1.15 | 0.907 | 0.882 | 0.938
34 | IA-LM | 1.04 | 1.02 | 0.936 | 1.27 | 0.853
35 | NCI-H1792 | 0.946 | 0.921 | 1.03 | 0.948 | 0.87
36 | HCC-44 | 0.998 | 0.945 | 1.12 |  | 0.893
37 | LK-2 | 1.05 | 0.805 | 1.08 | 0.678 | 0.97
38 | NCI-H1734 | 1.04 |  | 1.09 | 0.996 | 0.876
39 | NCI-H2126 | 1.02 | 0.696 | 1.08 | 0.955 | 0.936
40 | NCI-H661 | 0.977 | 0.962 | 0.994 | 0.969 | 0.982
41 | NCI-H1944 | 0.974 | 0.706 | 0.977 | 0.969 | 0.951
42 | ChaGo-K-1 | 1.02 | 0.794 | 1.01 |  | 0.949
43 | LCLC-103H | 1.02 | 0.806 | 1.12 | 0.964 | 
44 | HOP-62 | 1.15 |  | 1.2 | 0.999 | 0.943
45 | HCC-15 | 1.03 |  | 1.1 | 1.1 | 
46 | NCI-H1793 | 0.939 |  | 1.11 | 0.884 | 0.909
47 | NCI-H1755 | 1.08 | 0.988 |  | 0.958 | 1.01
48 | NCI-H322M | 0.988 | 1.05 | 0.99 | 0.831 | 0.944
49 | NCI-H650 | 1 | 0.779 | 1.02 | 1.1 | 0.824
50 | NCI-H1299 | 1.05 |  | 1.07 | 1.02 | 1.04
51 | Calu-6 | 1.08 | 1.08 | 1.16 | 1.06 | 1.02
52 | NCI-H2009 | 1.08 | 0.728 | 1.09 | 1.05 | 0.977

Row | Cell Line | relative viability (0.02 µM) | relative viability (0.06325 µM) | relative viability (0.2 µM) | relative viability (0.6325 µM) | relative viability (2 µM)
53 | NCI-H1437 | 1.11 |  | 1.12 | 1.04 | 0.957
54 | NCI-H2023 | 1.06 | 0.78 | 1.14 |  | 0.985
55 | LCLC-97TM1 | 1.08 |  | 1.01 | 1 | 1.03
56 | NCI-H2347 | 1.09 | 0.825 | 1.13 | 1.07 | 0.977
57 | NCI-H1993 | 0.89 | 0.8 | 1.08 | 0.886 | 0.925
58 | NCI-H1651 | 1.1 | 0.876 | 1.03 | 0.967 | 0.948
59 | NCI-H727 | 0.818 | 0.676 | 0.957 | 1.08 | 0.938
60 | SK-MES-1 |  | 1.05 | 1.21 | 1.01 | 1.04
61 | BEN | 1.09 | 0.82 | 0.897 | 0.871 | 0.912
62 | NCI-H2170 | 0.987 | 0.955 | 1.05 | 0.961 | 1.01
63 | NCI-H1975 | 1.04 | 0.951 | 0.94 | 0.964 | 0.94
64 | NCI-H1395 | 1.13 |  | 0.897 | 0.976 | 0.938
65 | LC-2-ad | 1.04 | 0.715 | 0.986 | 0.973 | 1
66 | NCI-H647 | 0.976 | 1.05 | 1.12 | 0.991 | 0.962
67 | COR-L23 | 1.08 | 0.916 | 1.14 | 1.02 | 1.1
68 | NCI-H23 | 1.06 | 0.994 | 1.07 | 0.967 | 0.926
69 | NCI-H1666 |  | 0.958 | 0.98 | 1.15 | 1.01
70 | PC-14 | 1.08 | 0.726 | 1.17 | 1 | 0.953
71 | NCI-H596 |  | 0.903 | 1.03 | 1.01 | 0.907
72 | NCI-H460 | 1.1 | 0.985 | 1.11 | 0.925 | 1
73 | CAL-12T | 1.04 | 0.865 | 1.13 | 1.05 | 0.943
74 | NCI-H3122 | 1.02 |  | 1.1 | 1.03 | 1.08
75 | A-427 | 1.04 |  | 0.989 | 0.974 | 0.969
76 | LU99A | 1.03 | 1.05 | 0.977 | 0.964 | 1.17
77 | NCI-H2087 | 1.11 |  | 1.13 | 1.16 | 
